This passage reports IC50, DC50 and Dmax results from US20220348595A1, “COMPOUNDS AND METHODS FOR THE TARGETED DEGRADATION OF ESTROGEN RECEPTORS” (Endotarget Inc., priority 2021, published 2022).

Read-outs that look alike come from different tables or passages of the source.

Common to all, as to format: cell-based
One assay has as its target T1, ER (Homo sapiens, UniProt P03372).
T1 construct: endogenous in cells; host or cells: T47d-kb-Luc (T47D stably transfected with a luciferase reporter gene only)
T1 sequence (P03372 1-595): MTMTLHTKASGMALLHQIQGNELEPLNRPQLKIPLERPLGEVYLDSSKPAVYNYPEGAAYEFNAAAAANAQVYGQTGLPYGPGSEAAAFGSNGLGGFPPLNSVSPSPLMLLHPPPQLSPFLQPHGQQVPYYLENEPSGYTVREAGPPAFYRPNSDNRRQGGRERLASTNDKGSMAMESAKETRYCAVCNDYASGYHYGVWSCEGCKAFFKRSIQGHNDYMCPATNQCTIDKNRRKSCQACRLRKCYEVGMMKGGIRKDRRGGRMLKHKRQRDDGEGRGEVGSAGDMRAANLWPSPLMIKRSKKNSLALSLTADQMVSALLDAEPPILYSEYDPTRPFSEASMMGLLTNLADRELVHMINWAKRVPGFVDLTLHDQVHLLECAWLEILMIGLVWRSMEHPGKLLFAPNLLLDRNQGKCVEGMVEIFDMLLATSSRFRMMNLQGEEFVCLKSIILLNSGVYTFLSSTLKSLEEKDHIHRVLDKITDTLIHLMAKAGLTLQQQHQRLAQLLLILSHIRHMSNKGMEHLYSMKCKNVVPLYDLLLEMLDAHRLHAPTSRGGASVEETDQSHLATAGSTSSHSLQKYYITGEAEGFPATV
Briefly: ER antagonism (T47D ERE luciferase), T47d-kb-Luc cells. Particulars: read-out: IC50 (ER antagonistm). Put shortly:
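Stably transfected T47d-kb-Luc human breast cancer cells were used, and antagonism was measured as inhibition of estradiol-driven activity. Data were normalised to the estradiol control. Five concentrations were tested in quadruplicate across at least three experiments.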

Assay [1] has as its system MCF-7 breast cancer cells. The assay is described as follows: MCF-7 proliferation / cell viability assay. The settings on record: MCF-7 proliferation with 0.1 nM 17-beta estradiol, read-out: IC50 (anti-proliferation). Put shortly: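 MCF-7 cells in 5% FBS DMEM were exposed for 5 days to compound at 6 doses from 10^−10 M to 10^−5 M, with DMSO as vehicle. Viable cells were counted by Coulter counter. Survival ratio = treated/vehicle viable cell number, vehicle set to 100%.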

A further assay has as its target T2, ERα (Homo sapiens, UniProt P03372).
T2 construct: endogenous in cells; host or cells: MCF-7
T2 sequence (P03372 1-595): T1 sequence (P03372 1-595)
Briefly: ER degradation in MCF-7 cells (Western blot). The settings on record: for DC50: ER degradation, 24 hours. Put shortly: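 MCF-7 cells treated with a range of compound concentrations for 24 hours, then lysed; 50 μg protein probed for ERα by Western blot with infrared imaging. DC50 is concentration giving 50% ER reduction; Dmax is the highest percentage reduction over the range tested.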
For orientation: In western blotting, separated proteins are transferred to a membrane and probed.

Setting [2] is: MCF7, Maximal ER degradation, read-out: Dmax.

What is called DC50 is the concentration giving 50% degradation. A higher DC50 goes with a less potent degrader. What is called Dmax is the largest share of the target that was removed. As to `CC/C(=C(/c1ccc(B(O)O)cc1)c1ccc(N2CCC(CN3CCN(c4ccc5c(c4)CN(C4CCC(=O)NC4=O)C5=O)CC3)CC2)cc1)c1ccccc1` (stereo not drawn) [Compound 2, (E)-(4-(1-(4-(4-((4-(2-(2,6-dioxopiperidin-3-yl)-1-oxoisoindolin-5-yl)piperazin-1-yl)methyl)piperidin-1-yl)phenyl)-2-phenylbut-1-en-1-yl)phenyl)boronic acid], the IC50 fell in the range of 10 to 50 nM on ER and 10 to 50 nM in assay [1] (Homo sapiens, MCF7). On ERα, this compound registered a DC50 of less than 10 nM. Also, the greatest degradation seen (Dmax) at ERα (setting [2]) is greater than 90%.
Regarding `CC/C(=C(/c1ccc(B(O)O)cc1)c1ccc(N2CCC(CN3CCN(c4ccc5c(c4)C(=O)N(C4CCC(=O)NC4=O)C5)CC3)CC2)cc1)c1ccccc1` (stereo not drawn) [Compound 4, (E)-(4-(1-(4-(4-((4-(2-(2,6-dioxopiperidin-3-yl)-3-oxoisoindolin-5-yl)piperazin-1-yl)methyl)piperidin-1-yl)phenyl)-2-phenylbut-1-en-1-yl)phenyl)boronic acid], the IC50 on ER is less than 10 nM; in assay [1] (Homo sapiens, MCF7), less than 10 nM. This compound yielded a DC50 at ERα greater than 50 nM. Moreover, the maximal degradation (Dmax) on ERα (setting [2]) is greater than 75%.
Regarding `CC/C(=C(/c1ccc(OCCN2CCC(CN3CCN(c4ccc5c(c4)CN([C@@H]4CCC(=O)NC4=O)C5=O)CC3)CC2)cc1)c1ccc(B(O)O)cc1)c1ccccc1` [Compound 74, (R,Z)-(4-(1-(4-(2-(4-((4-(2-(2,6-dioxopiperidin-3-yl)-1-oxoisoindolin-5-yl)piperazin-1-yl)methyl)piperidin-1-yl)ethoxy)phenyl)-2-phenylbut-1-en-1-yl)phenyl)boronic acid], the IC50 is less than 10 nM at ER and less than 10 nM in assay [1] (Homo sapiens, MCF7). Besides, at ERα, the DC50 was less than 10 nM. The Dmax at ERα (setting [2]) was greater than 90%.
For `CC/C(=C(\c1ccc(O)cc1)c1ccc(OCCN2CCN(C(=O)N3CCN(c4ccc5c(c4)CN([C@H]4CCC(=O)NC4=O)C5=O)CC3)CC2)cc1)c1ccccc1` [Compound 78, (S,Z)-3-(5-(4-(4-(2-(4-(1-(4-hydroxyphenyl)-2-phenylbut-1-en-1-yl)phenoxy)ethyl)piperazine-1-carbonyl)piperazin-1-yl)-1-oxoisoindolin-2-yl)piperidine-2,6-dione], the IC50 at ER was less than 10 nM; in assay [1] (Homo sapiens, MCF7), less than 10 nM. The same compound had a 50% degradation concentration (DC50) on ERα of less than 10 nM. The Dmax on ERα (setting [2]) is greater than 90%.
Regarding `CC/C(=C(\c1ccc(B(O)O)cc1)c1ccc(N2CCN(C(=O)N3CCN(c4ccc5c(c4)CN([C@H]4CCC(=O)NC4=O)C5=O)CC3)CC2)cc1)c1ccccc1` [Compound 104, (S,Z)-(4-(1-(4-(4-(4-(2-(2,6-dioxopiperidin-3-yl)-1-oxoisoindolin-5-yl)piperazine-1-carbonyl)piperazin-1-yl)phenyl)-2-phenylbut-1-en-1-yl)phenyl)boronic acid], the IC50 is less than 10 nM at ER and less than 10 nM in assay [1] (Homo sapiens, MCF7). This compound returned a DC50 at ERα of less than 10 nM. The greatest degradation seen (Dmax) at ERα (setting [2]) is greater than 90%.
With `CC/C(=C(/c1ccc(B(O)O)cc1)c1ccc(N2CCC(CCN3CCN(c4ccc5c(c4)CN(C4CCC(=O)NC4=O)C5=O)CC3)CC2)cc1)c1ccccc1` (stereo not drawn) [Compound 8, (E)-(4-(1-(4-(4-(2-(4-(2-(2,6-dioxopiperidin-3-yl)-1-oxoisoindolin-5-yl)piperazin-1-yl)ethyl)piperidin-1-yl)phenyl)-2-phenylbut-1-en-1-yl)phenyl)boronic acid], the IC50 is less than 10 nM on ER and 10 to 50 nM in assay [1] (Homo sapiens, MCF7). The compound also gave a DC50 at ERα of 10 to 50 nM. Besides, the greatest degradation seen (Dmax) at ERα (setting [2]) was greater than 90%.
Consider `CC/C(=C(/c1ccc(OCCN2CCC(CCN3CCN(c4ccc5c(c4)C(=O)N(C4CCC(=O)NC4=O)C5=O)CC3)CC2)cc1)c1ccc(B(O)O)cc1)c1ccccc1` (stereo not drawn) [Compound 27, (Z)-(4-(1-(4-(2-(4-(2-(4-(2-(2,6-dioxopiperidin-3-yl)-1,3-dioxoisoindolin-5-yl)piperazin-1-yl)ethyl)piperidin-1-yl)ethoxy)phenyl)-2-phenylbut-1-en-1-yl)phenyl)boronic acid], for which the IC50 was greater than 50 nM at ER and 10 to 50 nM in assay [1] (Homo sapiens, MCF7). The compound further yielded a DC50 at ERα of less than 10 nM. Besides, on ERα (setting [2]), the maximal degradation (Dmax) is greater than 90%.
Take `CC/C(=C(\c1ccc(OCCN2CCN(C(=O)N3CCC(CN4CCN(c5ccc6c(c5)CN(C5CCC(=O)NC5=O)C6=O)CC4)CC3)CC2)cc1)c1ccc(B(O)O)cc1)c1ccccc1` (stereo not drawn) [Compound 92, (E)-(4-(1-(4-(2-(4-(4-((4-(2-(2,6-dioxopiperidin-3-yl)-1-oxoisoindolin-5-yl)piperazin-1-yl)methyl)piperidine-1-carbonyl)piperazin-1-yl)ethoxy)phenyl)-2-phenylbut-1-en-1-yl)phenyl)boronic acid]: the IC50 at ER was less than 10 nM; in assay [1] (Homo sapiens, MCF7) it was less than 10 nM. The 50% degradation concentration (DC50) on ERα is less than 10 nM. The greatest degradation seen (Dmax) on ERα (setting [2]) is greater than 90%.
Regarding `CC/C(=C(\c1ccc(B(O)O)cc1)c1ccc(N2CCC(CCCN3CCN(c4ccc5c(c4)C(=O)N(C4CCC(=O)NC4=O)C5=O)CC3)CC2)cc1)c1ccccc1` (stereo not drawn) [Compound 51, (Z)-(4-(1-(4-(4-(3-(4-(2-(2,6-dioxopiperidin-3-yl)-1,3-dioxoisoindolin-5-yl)piperazin-1-yl)propyl)piperidin-1-yl)phenyl)-2-phenylbut-1-en-1-yl)phenyl)boronic acid], the IC50 lay within 10 to 50 nM at ER and 10 to 50 nM in assay [1] (Homo sapiens, MCF7). For the same compound, the DC50 at ERα was less than 10 nM. Moreover, the greatest degradation seen (Dmax) at ERα (setting [2]) is greater than 90%.
As for `CC/C(=C(\c1ccc(B(O)O)cc1)c1ccc(N2CCN(C(=O)N3CCN(c4ccc5c(c4)CN([C@@H]4CCC(=O)NC4=O)C5=O)CC3)CC2)cc1)c1ccccc1` [Compound 105], the IC50 was less than 10 nM at ER and less than 10 nM in assay [1] (Homo sapiens, MCF7). For the same compound, the half-maximal degradation concentration (DC50) at ERα is less than 10 nM. Further, at ERα (setting [2]), the Dmax is greater than 90%.
With `CC/C(=C(/c1ccc(B(O)O)cc1)c1ccc(N2CCC(CNC3CCN(c4ccc5c(c4)C(=O)N(C4CCC(=O)NC4=O)C5)CC3)CC2)cc1)c1ccccc1` (stereo not drawn) [Compound 14, (E)-(4-(1-(4-(4-(((1-(2-(2,6-dioxopiperidin-3-yl)-3-oxoisoindolin-5-yl)piperidin-4-yl)amino)methyl)piperidin-1-yl)phenyl)-2-phenylbut-1-en-1-yl)phenyl)boronic acid], the IC50 on ER was less than 10 nM; in assay [1] (Homo sapiens, MCF7), less than 10 nM. On ERα, this compound came in with a half-maximal degradation concentration (DC50) of less than 10 nM. For the same compound, the Dmax at ERα (setting [2]) was greater than 90%.
As for `CC/C(=C(/c1ccc(O)cc1)c1ccc(OCCN2CCN(C(=O)N3CCN(c4ccc5c(c4)CN([C@H]4CCC(=O)NC4=O)C5=O)CC3)CC2)cc1)c1ccccc1` [Compound 81, (S,E)-3-(5-(4-(4-(2-(4-(1-(4-hydroxyphenyl)-2-phenylbut-1-en-1-yl)phenoxy)ethyl)piperazine-1-carbonyl)piperazin-1-yl)-1-oxoisoindolin-2-yl)piperidine-2,6-dione], the IC50 on ER is less than 10 nM; in assay [1] (Homo sapiens, MCF7) it was less than 10 nM. The compound also gave a DC50 on ERα of less than 10 nM. The greatest degradation seen (Dmax) on ERα (setting [2]) is greater than 90%.
For `CC/C(=C(\c1ccc(O)cc1)c1ccc(N2CCN(C(=O)N3CCN(c4ccc5c(c4)CN([C@H]4CCC(=O)NC4=O)C5=O)CC3)CC2)cc1)c1ccccc1` [Compound 98], the IC50 on ER is less than 10 nM; in assay [1] it was 10 to 50 nM. Also, the half-maximal degradation concentration (DC50) on ERα fell in the range of 10 to 50 nM. The Dmax result at ERα (Maximal ER degradation) is given as “A (A -> 90%)”.
As for `CC/C(=C(/c1ccc(OCCN2CCN(c3ccc4c(c3)C(=O)N(C3CCC(=O)NC3=O)C4=O)CC2)cc1)c1ccc(B(O)O)cc1)c1ccccc1` (stereo not drawn) [Compound 41, (Z)-(4-(1-(4-(2-(4-(2-(2,6-dioxopiperidin-3-yl)-1,3-dioxoisoindolin-5-yl)piperazin-1-yl)ethoxy)phenyl)-2-phenylbut-1-en-1-yl)phenyl)boronic acid], the IC50 on ER was in the range of 10 to 50 nM; in assay [1] (Homo sapiens, MCF7), 10 to 50 nM. On ERα, this compound yielded a DC50 of 10 to 50 nM. Besides, the Dmax on ERα (setting [2]) was greater than 50%.
Turning to `CC/C(=C(\c1ccc(B(O)O)cc1)c1ccc(C2CCN(CCCN3CCN(c4ccc5c(c4)CN(C4CCC(=O)NC4=O)C5=O)CC3)CC2)cc1)c1ccccc1` (stereo not drawn) [Compound 49, (Z)-(4-(1-(4-(1-(3-(4-(2-(2,6-dioxopiperidin-3-yl)-1-oxoisoindolin-5-yl)piperazin-1-yl)propyl)piperidin-4-yl)phenyl)-2-phenylbut-1-en-1-yl)phenyl)boronic acid], the IC50 was less than 10 nM on ER and 10 to 50 nM in assay [1] (Homo sapiens, MCF7). Moreover, the DC50 on ERα was less than 10 nM. Also, the Dmax on ERα (setting [2]) was greater than 90%.
